The text below walks through data of ChEMBL document CHEMBL1921728, “β-PNA: peptide nucleic acid (PNA) with a chiral center at the β-position of the PNA backbone” (Bioorg Med Chem Lett, 2011).

One may read the Tm as the temperature at the midpoint of the melting transition. For orientation: solubility means how much of the substance goes into solution per volume. Low readings indicate little dissolved substance, high ones much dissolved substance.

One data set relates to Nucleic Acid. Kind of data set: Binding affinity to 5'-AGTGATCTAC-3' DNA assessed as melting temperature at 5 uM at pH 7.4 by thermal denaturation assay. It is filed as nucleic-acid assay.
Data set [1] in a line: Solubility of the compound in water. It is filed as physicochemical.

Structures are written as SMILES.

`Cc1cn(CC(=O)N(CC(=O)NCCN(CC(=O)NCCN(CC(=O)NCCN(CC(=O)NC[C@H](C)N(CC(=O)N[C@@H](CCCCN)C(N)=O)C(=O)Cn2cc(C)c(=O)[nH]c2=O)C(=O)Cn2ccc(N)nc2=O)C(=O)Cn2cnc3c(N)ncnc32)C(=O)Cn2ccc(N)nc2=O)[C@@H](C)CNC(=O)CN(CCNC(=O)CN(CCNC(=O)CN(CCNC(=O)CN(C(=O)Cn2cc(C)c(=O)[nH]c2=O)[C@@H](C)CNC(=O)CN(CCN)C(=O)Cn2cnc3c(=O)[nH]c(N)nc32)C(=O)Cn2cnc3c(N)ncnc32)C(=O)Cn2cnc3c(=O)[nH]c(N)nc32)C(=O)Cn2cnc3c(N)ncnc32)c(=O)[nH]c1=O`: the Tm in the data set with Nucleic Acid is 51 °C. The compound further showed a solubility in data set [1] greater than 500 µM.
Consider `Cc1cn(CC(=O)N(CCNC(=O)CN(CCNC(=O)CN(CCNC(=O)CN(CCNC(=O)CN(CCNC(=O)CN(CCN)C(=O)Cn2cnc3c(=O)[nH]c(N)nc32)C(=O)Cn2cc(C)c(=O)[nH]c2=O)C(=O)Cn2cnc3c(N)ncnc32)C(=O)Cn2cnc3c(=O)[nH]c(N)nc32)C(=O)Cn2cnc3c(N)ncnc32)CC(=O)NCCN(CC(=O)NCCN(CC(=O)NCCN(CC(=O)NCCN(CC(=O)N[C@@H](CCCCN)C(N)=O)C(=O)Cn2cc(C)c(=O)[nH]c2=O)C(=O)Cn2ccc(N)nc2=O)C(=O)Cn2cnc3c(N)ncnc32)C(=O)Cn2ccc(N)nc2=O)c(=O)[nH]c1=O`, for which the Tm in the data set on Nucleic Acid was 51.4 °C. The compound also displayed a solubility in data set [1] greater than 500 µM.
Regarding `Cc1cn(CC(=O)N(CC(=O)NCCN(CC(=O)NCCN(CC(=O)NCCN(CC(=O)NC[C@@H](C)N(CC(=O)N[C@H](CCCCN)C(N)=O)C(=O)Cn2cc(C)c(=O)[nH]c2=O)C(=O)Cn2ccc(N)nc2=O)C(=O)Cn2cnc3c(N)ncnc32)C(=O)Cn2ccc(N)nc2=O)[C@H](C)CNC(=O)CN(CCNC(=O)CN(CCNC(=O)CN(CCNC(=O)CN(C(=O)Cn2cc(C)c(=O)[nH]c2=O)[C@H](C)CNC(=O)CN(CCN)C(=O)Cn2cnc3c(=O)[nH]c(N)nc32)C(=O)Cn2cnc3c(N)ncnc32)C(=O)Cn2cnc3c(=O)[nH]c(N)nc32)C(=O)Cn2cnc3c(N)ncnc32)c(=O)[nH]c1=O`, in data set [1], the solubility was greater than 500 µM.
